IC50 data for eleven compounds are collected here from BindingDB's records for patent WO2022098806 (MERCK SHARP & DOHME LLC, 2022).

The assay concerns the target Mitogen-activated protein kinase kinase kinase kinase 1 (Homo sapiens, UniProt Q92918). As to the kind of experiment: HPK1-SLP76 TR-FRET ASSAY.

Chain of Mitogen-activated protein kinase kinase kinase kinase 1 (Q92918 whole entry): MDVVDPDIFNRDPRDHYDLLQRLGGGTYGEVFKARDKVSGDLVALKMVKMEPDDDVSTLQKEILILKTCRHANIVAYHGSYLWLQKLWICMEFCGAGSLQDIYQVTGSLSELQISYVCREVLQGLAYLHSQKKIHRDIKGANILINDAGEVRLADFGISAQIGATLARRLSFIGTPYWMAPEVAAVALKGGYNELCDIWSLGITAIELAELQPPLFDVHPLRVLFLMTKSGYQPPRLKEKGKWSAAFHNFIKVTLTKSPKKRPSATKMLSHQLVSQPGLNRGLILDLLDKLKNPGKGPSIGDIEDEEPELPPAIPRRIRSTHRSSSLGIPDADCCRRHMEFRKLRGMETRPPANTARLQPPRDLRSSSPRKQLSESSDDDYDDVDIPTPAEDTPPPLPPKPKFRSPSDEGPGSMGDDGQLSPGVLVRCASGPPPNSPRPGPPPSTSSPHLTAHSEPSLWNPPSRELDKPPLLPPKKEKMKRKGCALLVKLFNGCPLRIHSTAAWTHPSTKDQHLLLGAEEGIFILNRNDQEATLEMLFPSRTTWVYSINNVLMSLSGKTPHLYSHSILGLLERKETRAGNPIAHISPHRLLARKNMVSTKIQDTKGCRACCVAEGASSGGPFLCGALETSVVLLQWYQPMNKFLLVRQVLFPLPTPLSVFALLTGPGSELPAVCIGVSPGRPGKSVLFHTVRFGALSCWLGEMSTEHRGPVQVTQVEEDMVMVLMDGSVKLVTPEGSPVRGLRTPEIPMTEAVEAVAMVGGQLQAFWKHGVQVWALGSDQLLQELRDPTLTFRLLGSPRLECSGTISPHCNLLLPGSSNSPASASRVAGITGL

Consider `COc1cc2c(cc1Nc1ncc3ccc(-c4cccc(C5CCC(=O)N5)c4)cc3n1)CN(C)CC2` (stereo unspecified) [WO2022098806, Compound 1-99], for which the IC50 came to 120 nM.
The same measure for `COc1cc(C2CC2)ccc1Nc1ncc2c(N)c(F)c(-c3cnc4c(c3C)NCCO4)cc2n1` [WO2022098806, Compound 2-176]: 17 nM; for `Cc1c(-c2c(F)c(N)c3cnc(Nc4ccc(N5CCOC5=O)cc4)nc3c2Cl)cnc2c1NCCO2` [WO2022098806, Compound 2-159]: 0.24 nM; for `Cc1c(-c2cc3nc(Nc4ccc(C5(S(C)(=O)=O)CC5)cc4)ncc3c(N)c2F)cnc2c1NCCO2` [WO2022098806, Compound 2-148]: 0.08 nM.
Turning to `Cc1c(-c2cc3nc(Nc4ccc(CC(C)(C)O)cc4)ncc3c(N)c2F)cnc2c1NCCO2` [WO2022098806, Compound 2-178], inhibition was half-maximal at 0.09 nM (IC50).
As to `Cc1c(-c2cc3nc(Nc4ccc([S+](C)[O-])cc4)ncc3c(N)c2F)cnc2c1NCCO2` (stereo unspecified) [WO2022098806, Compound 2-170], the IC50 is 0.04 nM.
`CC[C@H]1COC(=O)N1c1cc(N)c2cnc(Nc3cc4c(cc3OC)CCN(C)C4)nc2c1` [WO2022098806, Compound 3-16] returned an IC50 of 0.17 nM. Compared with the last compound, the IC50 is about 4.2-fold higher.
Turning to `Cc1c(-c2c(F)c(N)c3cnc(Nc4ccc(CS(=O)(=O)C(C)C)cc4)nc3c2Cl)cnc2c1NCCO2` [WO2022098806, Compound 2-133], the IC50 was 0.4 nM.
The same measure for `Cc1c(-c2cc3nc(Nc4ccc5c(c4)CCN(C)C5)ncc3c(N)c2F)cnc2c1NCCO2` [WO2022098806, Compound 2-158]: 0.03 nM; for `Cc1c(-c2c(F)c(N)c3cnc(Nc4ccc(S(C)(=O)=O)cc4)nc3c2Cl)cnc2c1NCCO2` [WO2022098806, Compound 2-103]: 0.09 nM; for `Cc1c(N)cncc1-c1cc2nc(Nc3ccc4c(c3)CN(C)CC43CC3)ncc2c(N)c1F` [WO2022098806, Compound 2-153]: 0.05 nM.
